Experimental data reported in the NIST ThermoML archive (doi:10.1021/je700316s).
Numbers after ± are expanded uncertainties.

Settings: Liquid; for mass density: 298.15 K, 101.33 kPa, Pycnometric method
[1] = Ebulliometric method (Recirculating still)

CCCO [propan-1-ol]
mass density: 799.6 ± 0.7 kg/m3 | Normal boiling temperature [1]: 97.06 ± 0.2 °C

CC(C)O [propan-2-ol]
mass density: 780.8 ± 0.7 kg/m3 | Normal boiling temperature [1]: 82.2 ± 0.2 °C

CCO [ethanol]
mass density: 785.2 ± 0.7 kg/m3 | Normal boiling temperature: 78.29 ± 0.2 °C

CCCCO [butan-1-ol]
mass density: 805.8 ± 0.7 kg/m3 | Normal boiling temperature [1]: 117.70 ± 0.2 °C
